Assay results: patent US20250002470A1, “NITROGEN-CONTAINING COMPOUND, PREPARATION METHOD THEREFOR AND APPLICATION THEREOF” (ZHEJIANG AIXPLORER BIOTECH CO., LTD., priority 2021, published 2025)
Marks after values point to notes of the source that are not given here.

Assays:
[1] = biological target: hERG potassium channel (Homo sapiens, UniProt Q12809); test: Whole-cell patch-clamp (QPatch) of hERG current in HEK293 cells stably expressing hERG; assay type: cell-based
Experimental: In this study, a whole-cell patch-clamp technique was used to study the inhibitory effect of compounds on hERG potassium channels and to evaluate the risk of ventricular repolarization toxicity.
The HEK293 cell line stably expressing the hERG potassium channel cells was purchased from Creacell, Inc. (Cat. No. A-0320).
The HEK293 cell line that can stably express the hERG potassium channel, was cultured in DMEM medium containing 10% fetal bovine serum and 0.8 mg/mL G418 at 37° C. and 5% carbon dioxide.
Before the test, the cells were separated with TrypLET Express, centrifuged after adding medium to terminate digestion, resuspended the cell count, adjusted the cell density to 2-3×10^6 cells/mL, and then lightly mixed the cells on a room temperature equilibration shaker for 15-20 min.
Electrophysiological assays were performed using a fully automated patch-clamp QPatch 48 X (Sophion) device. The prepared cells were placed on a centrifuge on the Qpatch bench, the cells were washed using multiple centrifugation/suspension methods, and the cell culture medium was replaced with extracellular fluid. Remove an MTP-96 plate and place it in the location of the MTP source. Remove the QPlate chip and subsequently place the QPlate at the Qplate source location. The robotic arm scans the MTP-96 board and the QPlate chip barcode and grabs it to the measuring station. Draw the intracellular and external fluid from the liquid pool and add them to the intracellular fluid pool, cell and test cell pool of the QPlate chip, respectively. At the measuring station, all measuring sites on the QPlate undergo initial quality control. The quality control process includes aspirating the cell suspension from the cell vessel of the centrifuge and positioning the cells to the chip wells via a pressure controller to establish a high-resistance seal and create a whole-cell recording pattern.
The voltage stimulation protocol for whole-cell patch-clamp recording of whole-cell hERG potassium currents is as follows: the cell membrane voltage clamps at −80 mV when a whole-cell closure is formed. The clamping voltage is depolarized from −80 mV to −50 mV for 0.5 s (as a leakage current detection), then steps to 30 mV for 2.5 s, and then quickly recovers to −50 mV for 4 s to excite the tail current of the hERG channel. The data were collected repeatedly every 10 s to observe the effect of the drug on the hERG tail current. −50 mV stimulation at 0.5 s was used as the leakage current detection. The test data is collected by Qpatch and stored in the connected service station.
First, the current after the effect of each drug concentration and the blank control current are normalized 0, and then the inhibition rate corresponding to each drug concentration is calculated.
Calculate the mean and standard error for each concentration and calculate the semi-inhibitory concentration for each compound using the following Formula:
Y=Bottom+(Top−Bottom)/(1+10^((LogIC50−X)*HillSlope)) The above Formula was used to fit the dose-dependent effect nonlinearly, where C represents the test substance concentration, IC50 is the semi-inhibitory concentration, and h represents the Hill coefficient. Curve fitting and IC50 calculations were performed using Graphpad software.

[2] = tested on: DSS-induced acute enteritis mouse model; test: DSS-induced acute enteritis mouse model (body weight, DAI score, colon length); assay type: in vivo, C57BL/6 mice
Experimental: Grouping and modeling: One day before the start of the experiment, all C57BL/6 mice were ear-labeled and recorded, and the animals with appropriate weight and normal status were selected for grouping (Sham group, vehicle group and embodiment 33 group). 10 animals per group; 3.5% dextran sulfate sodium salt (DSS, MP, molecular weight 36000-50000) prepared with sterile water is loaded into the drinking bottle in the vehicle and the 33 testing groups of rearing cages in the embodiment (100 mL per cage, replace the 3.5% DSS solution after 2-3 days with freshly prepared solution), and the animals in the vehicle and the 33 testing groups of the embodiment are free to drink for 10 consecutive days. The Sham group drank the normal water not containing DSS. Embodiment 33 compound is administered orally BID.
1) Body Weight Change (%)=BWi/BW0×100%, BWi is the average body weight of mice in the group on a given day, BW0 is the average body weight of mice before the start of treatment.
2) DAI score: The Disease Activity Index (DAI) scoring criteria are as follows:
3) Colon length: After the last dose, all animals were euthanized with CO2 and dissected. The entire colon (anus-cecum section) was isolated, moistened with ice-cold saline, smoothed and laid flat. On the dissecting board, without applying external force to stretch, use a digital vernier caliper to measure the length of the colon and record it, and take photos for retention.

[3] = 50 mpk P.O Bid, 3.5% DSS, day 11, n = 10

hERG potassium channel, sequence (Q12809 whole entry): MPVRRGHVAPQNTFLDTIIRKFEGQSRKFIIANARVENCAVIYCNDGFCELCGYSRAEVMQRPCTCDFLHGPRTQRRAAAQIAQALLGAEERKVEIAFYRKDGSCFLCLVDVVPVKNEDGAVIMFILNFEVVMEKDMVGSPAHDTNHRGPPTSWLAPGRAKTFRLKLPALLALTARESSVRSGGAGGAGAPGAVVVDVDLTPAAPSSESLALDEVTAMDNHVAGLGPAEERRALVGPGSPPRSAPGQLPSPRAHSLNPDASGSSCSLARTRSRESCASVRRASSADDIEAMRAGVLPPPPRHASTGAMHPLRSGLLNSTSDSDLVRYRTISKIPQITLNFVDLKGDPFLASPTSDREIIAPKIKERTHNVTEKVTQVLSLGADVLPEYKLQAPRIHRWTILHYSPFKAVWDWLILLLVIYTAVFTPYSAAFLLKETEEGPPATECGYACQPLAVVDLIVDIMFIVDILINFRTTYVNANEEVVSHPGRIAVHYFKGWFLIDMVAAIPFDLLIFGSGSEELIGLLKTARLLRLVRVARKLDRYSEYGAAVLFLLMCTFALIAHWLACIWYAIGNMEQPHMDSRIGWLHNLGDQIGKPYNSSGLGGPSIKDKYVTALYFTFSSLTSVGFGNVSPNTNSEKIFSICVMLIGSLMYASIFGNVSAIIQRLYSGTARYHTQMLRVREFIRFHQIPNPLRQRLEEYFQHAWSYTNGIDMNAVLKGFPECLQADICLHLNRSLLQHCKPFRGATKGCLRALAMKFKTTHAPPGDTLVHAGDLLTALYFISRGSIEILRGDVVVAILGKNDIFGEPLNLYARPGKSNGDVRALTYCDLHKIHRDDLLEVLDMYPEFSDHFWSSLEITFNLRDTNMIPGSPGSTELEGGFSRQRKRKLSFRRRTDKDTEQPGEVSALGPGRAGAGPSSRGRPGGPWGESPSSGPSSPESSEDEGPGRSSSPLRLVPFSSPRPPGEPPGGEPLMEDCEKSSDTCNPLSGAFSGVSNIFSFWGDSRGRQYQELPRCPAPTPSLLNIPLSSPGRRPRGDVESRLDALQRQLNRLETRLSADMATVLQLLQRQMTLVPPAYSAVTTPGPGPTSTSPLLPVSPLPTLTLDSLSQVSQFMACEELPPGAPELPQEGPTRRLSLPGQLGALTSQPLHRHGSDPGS

Which results are given for `Cc1nc(N[C@@H]2CCCC[C@H]2O)nnc1-c1ccc(C(F)(F)F)cc1O` [Embodiment 33]?
IC50 [1]: > 30 µM; curative effect on animals with DSS-induced acute enteritis (IBD) ([2]; 50mpk P.O Bid): significant curative effect; Day 11 weight change (%) [2, 3]: 88.09%; Rate of body weight loss (%) [2, 3]: 11.91%**; DAI score ([2]; 50 mpk P.O Bid, Day 3): 0.00; DAI score ([2]; 50 mpk P.O Bid, Day 5): 2.60 ± 0.45; DAI score ([2]; 50 mpk P.O Bid, Day 7): 4.40 ± 0.6; DAI score ([2]; 50 mpk P.O Bid, Day 9): 6.20 ± 0.68; DAI score ([2]; 50 mpk P.O Bid, Day 11): 7.80 ± 0.63; Colon length ([2]; 50 mpk P.O Bid, after the last dose, n = 10): 58.27 ± 1.48 mm
